Reference: patent US10065990B2, “Cyclic peptide compound, and preparation method, pharmaceutical composition and use thereof” (HANGZHOU GUANYU BIO-MEDICAL CO., LTD, priority 2013, dated 2018)
Like-named read-outs stand apart in the source and are kept apart here.

Key:
[1] = target: T1, HDAC7 (Homo sapiens, UniProt Q8WUI4); experiment: HDAC biochemical activity measurement (fluorescent substrate deacetylation);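 note: fluorogenic deacetylation assay using acetyl-lysine substrate at 20 µM, enzyme and compound incubated 30 min at 37 °C, then developer added, fluorescence read at 360/460 nm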; conditions: HDAC7; 37° C. 30 minutes
T1 sequence (Q8WUI4 1-952): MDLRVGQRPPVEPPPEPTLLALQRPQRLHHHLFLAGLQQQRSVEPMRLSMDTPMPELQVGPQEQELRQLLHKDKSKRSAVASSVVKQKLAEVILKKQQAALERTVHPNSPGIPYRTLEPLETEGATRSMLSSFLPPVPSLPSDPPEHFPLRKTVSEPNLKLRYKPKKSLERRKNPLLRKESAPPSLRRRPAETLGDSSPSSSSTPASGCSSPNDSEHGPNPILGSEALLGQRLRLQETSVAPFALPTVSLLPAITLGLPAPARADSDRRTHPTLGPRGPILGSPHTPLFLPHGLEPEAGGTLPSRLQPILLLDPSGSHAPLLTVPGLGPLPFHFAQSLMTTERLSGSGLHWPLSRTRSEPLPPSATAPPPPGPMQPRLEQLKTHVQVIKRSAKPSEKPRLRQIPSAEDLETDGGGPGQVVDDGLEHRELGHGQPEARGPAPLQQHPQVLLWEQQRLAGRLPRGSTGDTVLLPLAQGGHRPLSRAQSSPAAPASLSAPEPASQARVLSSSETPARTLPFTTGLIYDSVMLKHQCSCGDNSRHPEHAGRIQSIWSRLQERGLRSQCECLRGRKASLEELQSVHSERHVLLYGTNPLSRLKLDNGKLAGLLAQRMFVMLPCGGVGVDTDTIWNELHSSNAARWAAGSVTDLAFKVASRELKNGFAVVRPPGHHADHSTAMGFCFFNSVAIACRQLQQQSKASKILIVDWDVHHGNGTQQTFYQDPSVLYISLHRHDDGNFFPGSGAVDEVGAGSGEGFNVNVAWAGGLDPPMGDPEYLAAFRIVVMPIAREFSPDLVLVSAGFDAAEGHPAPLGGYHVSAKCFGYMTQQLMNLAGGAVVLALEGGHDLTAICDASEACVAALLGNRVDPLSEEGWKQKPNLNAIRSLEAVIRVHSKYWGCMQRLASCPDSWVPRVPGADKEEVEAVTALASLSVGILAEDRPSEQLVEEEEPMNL

[2] = system: A549 (human lung cancer cells); experiment: MTT cancer cell growth inhibition; format: cell-based; conditions: Homo sapiens, A549, 72 h, MTT, 72 hours incubation, read-out: GI50 A54
Procedure, shortened: (§1)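 Seed 1500 cells/well, incubate overnight. Add compound, 10^−5 to 10^−10 M final, n=3; culture 72 h, 37° C., 5% CO2. Add MTT, 4 h. Discard supernatant, dissolve in DMSO. Read 570 nm; calculate viability and GI50.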

[3] = system: BGC-823 (human gastric cancer cells); experiment: MTT cancer cell growth inhibition; format: cell-based; conditions: Homo sapiens, BGC-823, 72 h, MTT, 72 hours incubation, read-out: GI50 BG
Procedure, shortened: as §1

[4] = system: Bel-7402 (human hepatoma cells); experiment: MTT cancer cell growth inhibition; format: cell-based; conditions: Homo sapiens, Bel-7402, 72 h, MTT, 72 hours incubation, Bel-7402 cells; read-out: GI50 Bel-7402
Procedure, shortened: as §1

[5] = system: DU145 (human prostate cancer cells); experiment: MTT cancer cell growth inhibition; format: cell-based; conditions: Homo sapiens, DU-145, 72 h, MTT, 72 hours incubation, read-out: GI50 Du1
Procedure, shortened: as §1

[6] = system: H1975 (non-small cell lung adenocarcinoma); experiment: MTT cancer cell growth inhibition; format: cell-based; conditions: Homo sapiens, NCI-H1975, 72 h, MTT, 72 hours incubation, H1975 cells; read-out: GI50 H1975
Procedure, shortened: as §1

[7] = system: HCC827 (human non-small cell lung cancer cells); experiment: MTT cancer cell growth inhibition; format: cell-based; conditions: Homo sapiens, HCC827, 72 h, MTT, 72 hours incubation, HCC827 cells; read-out: GI50 HCC827
Procedure, shortened: as §1

[8] = system: HT1080 (human fibrosarcoma cells); experiment: MTT cancer cell growth inhibition; format: cell-based; conditions: Homo sapiens, HT-1080, 72 h, MTT, 72 hours incubation, read-out: GI50 HT1
Procedure, shortened: as §1

[9] = system: Hela (human cervical cancer cells); experiment: MTT cancer cell growth inhibition; format: cell-based; conditions: Homo sapiens, HeLa, 72 h, MTT, 72 hours incubation, read-out: GI50 Hela
Procedure, shortened: as §1

[10] = system: Huh-7 (human hepatoma cells); experiment: MTT cancer cell growth inhibition; format: cell-based; conditions: Homo sapiens, Huh-7, 72 h, MTT, 72 hours incubation, Huh-7 cells; read-out: GI50 Huh-7
Procedure, shortened: as §1

[11] = system: K562 (human leukemia cells); experiment: MTT cancer cell growth inhibition; format: cell-based; conditions: Homo sapiens, K562, 72 h, MTT, 72 hours incubation, K562 cells; read-out: GI50 K562
Procedure, shortened: as §1

[12] = system: KBM-5 (human chronic myelogenous leukemia); experiment: MTT cancer cell growth inhibition; format: cell-based; conditions: Homo sapiens, KBM5, 72 h, MTT, 72 hours incubation, KBM-5 cells; read-out: GI50 KBM-5
Procedure, shortened: as §1

[13] = system: KBM5-T315I (human chronic myelogenous leukemia); experiment: MTT cancer cell growth inhibition; format: cell-based; conditions: Homo sapiens, 72 h, MTT, 72 hours incubation, KBM5-T315I cells; read-out: GI50 KBM5-T315I
Procedure, shortened: as §1

[14] = system: MCF-7 (human breast cancer cells); experiment: MTT cancer cell growth inhibition; format: cell-based; conditions: Homo sapiens, MCF7, 72 h, 72 hours incubation, read-out: GI50 MCF
Procedure, shortened: as §1

[15] = system: MDA-MB-231 (breast cancer cells); experiment: MTT cancer cell growth inhibition; format: cell-based; conditions: Homo sapiens, MDA-MB-231, 72 h, read-out: GI50 MDA-MB-231, MTT, 72 hours incubation, MDA-MB-231 cells
Procedure, shortened: as §1

[16] = system: MOLT-4 (human acute lymphoblastic leukemia cells); experiment: MTT cancer cell growth inhibition; format: cell-based; conditions: Homo sapiens, MOLT-4, 72 h, MTT, 72 hours incubation, read-out: GI50 Mol
Procedure, shortened: as §1

[17] = system: N-87 (human gastric cancer cells); experiment: MTT cancer cell growth inhibition; format: cell-based; conditions: Homo sapiens, 72 h, MTT, 72 hours incubation, N-87 cells; read-out: GI50 N-87
Procedure, shortened: as §1

[18] = system: PANC-1 (Pac-1, human pancreatic cancer cells); experiment: MTT cancer cell growth inhibition; format: cell-based; conditions: Homo sapiens, PANC-1, 72 h, MTT, 72 hours incubation, read-out: GI50 PAN
Procedure, shortened: as §1

[19] = system: SGC-7901 (human gastric cancer cells); experiment: MTT cancer cell growth inhibition; format: cell-based; conditions: Homo sapiens, SGC-7901, 72 h, MTT, 72 hours incubation, SGC-7901 cells; read-out: GI50 SGC-7901
Procedure, shortened: as §1

[20] = system: U937 (human leukemia cells); experiment: MTT cancer cell growth inhibition; format: cell-based; conditions: Homo sapiens, U-937, 72 h, MTT, 72 hours incubation, read-out: GI50 U93
Procedure, shortened: as §1

[21] = system: lncap (prostate cancer cells); experiment: MTT cancer cell growth inhibition; format: cell-based; conditions: Homo sapiens, LNCaP, 72 h, MTT, 72 hours incubation, read-out: GI50 lnca
Procedure, shortened: as §1

Compound	IC50 HDAC7 [1]	GI50 ([2]; A549 cells)	GI50 ([3]; BGC-823 cells)	GI50 [4]	GI50 ([5]; DU145 cells)	GI50 [6]	GI50 [7]	GI50 ([8]; HT1080 cells)	GI50 ([9]; Hela cells)	GI50 [10]	GI50 [11]	GI50 [12]	GI50 [13]	GI50 ([14]; MCF-7 cells)	GI50 [15]	GI50 ([16]; MOLT-4 cells)	GI50 [17]	GI50 ([18]; PANC-1 cells)	GI50 [19]	GI50 ([20]; U937 cells)	also measured
C/C=C1\NC(=O)c2nc(ccc2SC)CNC(=O)C[C@@H](/C=C/CCSC(=O)CCCCCC)OC(=O)[C@H](C(C)C)NC1=O [Compound 150]	no activity	0.03 µM	0.03 µM	0.058 µM	0.04 µM	0.079 µM	0.063 µM	0.08 µM	0.06 µM	0.046 µM	0.055 µM	0.026 µM	0.039 µM	0.04 µM	0.021 µM	0.08 µM	0.033 µM	0.03 µM	0.087 µM	0.03 µM	GI50 ([21]; lncap cells): 0.06 µM
C/C=C1\NC(=O)c2ccc(F)c(n2)CNC(=O)C[C@@H](/C=C/CCS)OC(=O)[C@H](Cc2cccc3ccccc23)NC1=O [Compound 126]	no activity	–	–	0.049 µM	–	0.033 µM	0.038 µM	–	–	0.051 µM	0.079 µM	0.041 µM	0.037 µM	–	0.029 µM	–	0.033 µM	–	0.081 µM	–	GI50 [2]: 0.03 µM; GI50 [3]: 0.1 µM; GI50 [5]: 0.06 µM; GI50 [8]: 0.05 µM; GI50 [9]: 0.13 µM; GI50 [14]: 0.02 µM; GI50 [16]: 0.09 µM; GI50 [18]: 0.03 µM; GI50 [20]: 0.07 µM; GI50 [21]: 0.02 µM
CC(=O)SCC/C=C/[C@@H]1CC(=O)NCc2ccc(F)c(n2)C(=O)NC(=C(C)C)C(=O)N[C@@H](C(C)C)C(=O)O1 [Compound 87]	no activity	–	–	0.057 µM	–	0.042 µM	0.057 µM	–	–	0.019 µM	0.027 µM	0.082 µM	0.037 µM	–	0.019 µM	–	0.021 µM	–	0.037 µM	–	GI50 [2]: 0.03 µM; GI50 [3]: 0.02 µM; GI50 [5]: 0.02 µM; GI50 [8]: 0.05 µM; GI50 [9]: 0.08 µM; GI50 [14]: 0.03 µM; GI50 [16]: 0.01 µM; GI50 [18]: 0.05 µM; GI50 [20]: 0.04 µM; GI50 [21]: 0.01 µM
C/C=C1\NC(=O)c2ccc(SC)c(n2)CNC(=O)C[C@@H](/C=C/CCSC(C)=O)OC(=O)[C@H](CCCCNC(=O)OCC2c3ccccc3-c3ccccc32)NC1=O [Compound 197]	no activity	0.06 µM	0.04 µM	0.052 µM	0.05 µM	0.045 µM	0.071 µM	0.05 µM	0.07 µM	0.076 µM	0.049 µM	0.086 µM	0.021 µM	0.05 µM	0.016 µM	0.04 µM	0.028 µM	0.04 µM	0.043 µM	0.08 µM	GI50 ([21]; lncap cells): 0.03 µM

Further lines, with some results ahead:

IC50 HDAC7 [1]	GI50 ([2]; A549 cells)	GI50 ([3]; BGC-823 cells)	GI50 [4]	GI50 ([5]; DU145 cells)	GI50 [6]	GI50 [7]	GI50 ([8]; HT1080 cells)	GI50 ([9]; Hela cells)	GI50 [10]	GI50 [11]	GI50 [12]	GI50 [13]	GI50 ([14]; MCF-7 cells)	GI50 [15]	GI50 ([16]; MOLT-4 cells)	GI50 [17]	GI50 ([18]; PANC-1 cells)	GI50 [19]	GI50 ([20]; U937 cells)	Compound	also measured
no activity	0.03 µM	0.05 µM	0.048 µM	0.06 µM	0.097 µM	0.013 µM	0.05 µM	0.1 µM	0.017 µM	0.049 µM	0.029 µM	0.057 µM	0.02 µM	0.056 µM	0.05 µM	0.062 µM	0.03 µM	0.035 µM	0.07 µM	C/C=C1\NC(=O)c2nc(ccc2SC)CNC(=O)C[C@@H](/C=C/CCSC(=O)CCCCCCC)OC(=O)[C@H](C)NC1=O [Compound 180]	GI50 ([21]; lncap cells): 0.02 µM
no activity	0.06 µM	0.06 µM	0.043 µM	0.05 µM	0.023 µM	0.075 µM	0.02 µM	0.04 µM	0.085 µM	0.045 µM	0.021 µM	0.041 µM	0.02 µM	0.011 µM	0.03 µM	0.042 µM	0.06 µM	0.038 µM	0.06 µM	C/C=C1\NC(=O)c2cc(SC)cc(n2)CNC(=O)C[C@@H](/C=C/CCSC(C)=O)OC(=O)[C@H](Cc2ccccc2)NC1=O [Compound 187]	GI50 ([21]; lncap cells): 0.06 µM
